# Experimental data reported in PubChem BioAssay (NCI).
#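 Assay format: 96-well plates, 48-hour exposure. TGI is the concentration that stops growth completely.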
# Legend:
# Experiment in all cases: NCI tumour cell line growth inhibition, 48 h
# UACC-62 melanoma = test system: UACC-62 melanoma
# HL-60(TB) leukemia = test system: HL-60(TB) leukemia
# CCRF-CEM leukemia = test system: CCRF-CEM leukemia
# K-562 leukemia = test system: K-562 leukemia
# SW-620 colon = test system: SW-620 colon
# HT29 colon = test system: HT29 colon
# KM12 colon = test system: KM12 colon
# LOX IMVI melanoma = test system: LOX IMVI melanoma
# EKVX NSCLC = test system: EKVX NSCLC
# SN12C renal = test system: SN12C renal
# HOP-62 NSCLC = test system: HOP-62 NSCLC
# SF-268 CNS = test system: SF-268 CNS
# RPMI-8226 leukemia = test system: RPMI-8226 leukemia
# UACC-257 melanoma = test system: UACC-257 melanoma
# PC-3 prostate = test system: PC-3 prostate
# DU-145 prostate = test system: DU-145 prostate
# NCI-H23 lung = test system: NCI-H23 lung
# MDA-MB-231 breast = test system: MDA-MB-231 breast
# T-47D breast = test system: T-47D breast
# HCC-2998 colon = test system: HCC-2998 colon
# IGROV1 ovarian = test system: IGROV1 ovarian
# HCT-15 colon = test system: HCT-15 colon
# OVCAR-8 ovarian = test system: OVCAR-8 ovarian
# MCF7 breast = test system: MCF7 breast
# SF-295 CNS = test system: SF-295 CNS
# SK-MEL-5 melanoma = test system: SK-MEL-5 melanoma
# 786-0 renal = test system: 786-0 renal
# A549 NSCLC = test system: A549 NSCLC
# CAKI-1 renal = test system: CAKI-1 renal
# SK-OV-3 ovarian = test system: SK-OV-3 ovarian
# SNB-75 CNS = test system: SNB-75 CNS
# MDA-N = test system: MDA-N
# TK-10 renal = test system: TK-10 renal
# M14 melanoma = test system: M14 melanoma
# MOLT-4 leukemia = test system: MOLT-4 leukemia
# SK-MEL-28 melanoma = test system: SK-MEL-28 melanoma
# MALME-3M melanoma = test system: MALME-3M melanoma
# COLO 205 colon = test system: COLO 205 colon
# RXF 393 renal = test system: RXF 393 renal
# SR leukemia = test system: SR leukemia
# OVCAR-3 ovarian = test system: OVCAR-3 ovarian
# HS 578T breast = test system: HS 578T breast
# U251 CNS = test system: U251 CNS
# NCI-H226 lung = test system: NCI-H226 lung
# SNB-19 CNS = test system: SNB-19 CNS
# NCI/ADR-RES ovarian = test system: NCI/ADR-RES ovarian
# SF-539 CNS = test system: SF-539 CNS
# OVCAR-4 ovarian = test system: OVCAR-4 ovarian
# MDA-MB-435 = test system: MDA-MB-435
# NCI-H460 lung = test system: NCI-H460 lung
# A498 renal = test system: A498 renal
# HCT-116 colon = test system: HCT-116 colon
# NCI-H522 lung = test system: NCI-H522 lung
# UO-31 renal = test system: UO-31 renal
# OVCAR-5 ovarian = test system: OVCAR-5 ovarian
# HOP-92 NSCLC = test system: HOP-92 NSCLC
# SK-MEL-2 melanoma = test system: SK-MEL-2 melanoma
# ACHN renal = test system: ACHN renal
structure (smiles),measurement,setting,value
CCCCCCCCCC[C@@H](OC(C)=O)[C@@H]1CC[C@@H]([C@@H]2CC[C@@H]([C@@H](O)CC#C/C=C/CCCCCCC[C@@]3(Sc4ccccc4)C[C@H](C)OC3=O)O2)O1,TGI,UACC-62 melanoma,> 10 µM
same,TGI,HL-60(TB) leukemia,> 10 µM
same,TGI,CCRF-CEM leukemia,> 10 µM
same,TGI,K-562 leukemia,> 10 µM
same,TGI,SW-620 colon,> 10 µM
same,TGI,HT29 colon,> 10 µM
same,TGI,KM12 colon,> 10 µM
same,TGI,LOX IMVI melanoma,> 10 µM
same,TGI,EKVX NSCLC,> 10 µM
same,TGI,SN12C renal,> 10 µM
same,TGI,HOP-62 NSCLC,> 10 µM
same,TGI,SF-268 CNS,> 10 µM
same,TGI,RPMI-8226 leukemia,> 10 µM
same,TGI,UACC-257 melanoma,> 10 µM
same,TGI,PC-3 prostate,> 10 µM
same,TGI,DU-145 prostate,> 10 µM
same,TGI,NCI-H23 lung,> 10 µM
same,TGI,MDA-MB-231 breast,> 10 µM
same,TGI,T-47D breast,> 10 µM
same,TGI,HCC-2998 colon,> 10 µM
same,TGI,IGROV1 ovarian,> 10 µM
same,TGI,HCT-15 colon,> 10 µM
same,TGI,OVCAR-8 ovarian,> 10 µM
same,TGI,MCF7 breast,> 10 µM
same,TGI,SF-295 CNS,> 10 µM
same,TGI,SK-MEL-5 melanoma,> 10 µM
same,TGI,786-0 renal,> 10 µM
same,TGI,A549 NSCLC,> 10 µM
same,TGI,CAKI-1 renal,> 10 µM
same,TGI,SK-OV-3 ovarian,> 10 µM
same,TGI,SNB-75 CNS,> 10 µM
same,TGI,MDA-N,> 10 µM
same,TGI,TK-10 renal,> 10 µM
same,TGI,M14 melanoma,> 10 µM
same,TGI,MOLT-4 leukemia,> 10 µM
same,TGI,SK-MEL-28 melanoma,> 10 µM
same,TGI,MALME-3M melanoma,> 10 µM
same,TGI,COLO 205 colon,> 10 µM
same,TGI,RXF 393 renal,> 10 µM
same,TGI,SR leukemia,> 10 µM
COCCOC(=O)C1=C(O)c2ccccc2S(=O)(=O)N1C,TGI,OVCAR-3 ovarian,> 100 µM
same,TGI,HS 578T breast,> 100 µM
same,TGI,UACC-62 melanoma,> 100 µM
same,TGI,HL-60(TB) leukemia,> 100 µM
same,TGI,CCRF-CEM leukemia,> 100 µM
same,TGI,K-562 leukemia,> 100 µM
same,TGI,U251 CNS,> 100 µM
same,TGI,SW-620 colon,> 100 µM
same,TGI,HT29 colon,> 100 µM
same,TGI,KM12 colon,> 100 µM
same,TGI,LOX IMVI melanoma,> 100 µM
same,TGI,EKVX NSCLC,> 100 µM
same,TGI,NCI-H226 lung,> 100 µM
same,TGI,SN12C renal,> 100 µM
same,TGI,HOP-62 NSCLC,> 100 µM
same,TGI,SF-268 CNS,> 100 µM
same,TGI,RPMI-8226 leukemia,> 100 µM
same,TGI,SNB-19 CNS,> 100 µM
same,TGI,UACC-257 melanoma,> 100 µM
same,TGI,PC-3 prostate,> 100 µM
same,TGI,DU-145 prostate,> 100 µM
same,TGI,NCI-H23 lung,> 100 µM
same,TGI,NCI/ADR-RES ovarian,> 100 µM
same,TGI,MDA-MB-231 breast,> 100 µM
same,TGI,T-47D breast,> 100 µM
same,TGI,SF-539 CNS,> 100 µM
same,TGI,HCC-2998 colon,> 100 µM
same,TGI,OVCAR-4 ovarian,> 100 µM
same,TGI,IGROV1 ovarian,> 100 µM
same,TGI,HCT-15 colon,> 100 µM
same,TGI,MDA-MB-435,> 100 µM
same,TGI,OVCAR-8 ovarian,> 100 µM
same,TGI,SF-295 CNS,> 100 µM
same,TGI,NCI-H460 lung,> 100 µM
same,TGI,SK-MEL-5 melanoma,> 100 µM
same,TGI,A498 renal,> 100 µM
same,TGI,HCT-116 colon,> 100 µM
same,TGI,786-0 renal,> 100 µM
same,TGI,NCI-H522 lung,> 100 µM
same,TGI,A549 NSCLC,> 100 µM
same,TGI,UO-31 renal,> 100 µM
same,TGI,CAKI-1 renal,> 100 µM
same,TGI,OVCAR-5 ovarian,> 100 µM
same,TGI,SK-OV-3 ovarian,> 100 µM
same,TGI,SNB-75 CNS,87.6 µM
same,TGI,MDA-N,> 100 µM
same,TGI,TK-10 renal,> 100 µM
same,TGI,M14 melanoma,> 100 µM
same,TGI,HOP-92 NSCLC,> 100 µM
same,TGI,MOLT-4 leukemia,> 100 µM
same,TGI,SK-MEL-2 melanoma,> 100 µM
same,TGI,SK-MEL-28 melanoma,> 100 µM
same,TGI,MALME-3M melanoma,> 100 µM
same,TGI,COLO 205 colon,> 100 µM
same,TGI,RXF 393 renal,> 100 µM
same,TGI,SR leukemia,> 100 µM
same,TGI,ACHN renal,> 100 µM
